Values of other authors in article PMC3048208 (British Journal of Cancer, 2011).

Parameters: method as in Kelly et al, 2005; Steele et al, 2008
Settings: ref Kelly et al, 2005; Steele et al, 2008; cited from earlier work

| Structure (SMILES) | half-life |
| --- | --- |
| O=C(CCCCCCC(=O)Nc1ccccc1)NO [vorinostat, suberoylanilide hydroxamic acid] | 1 to 2 h |
| O=C(/C=C/c1cccc(S(=O)(=O)Nc2ccccc2)c1)NO [belinostat] | 1 to 2 h |
